Results taken from patent US10214508B2, “Nitrogen-containing heterocyclic compound” (Takeda Pharmaceutical Company Limited, priority 2014, dated 2019).

Target: T1, human M1 receptor (hCHRM1) (Homo sapiens, UniProt P11229)
T1 construct: expressed in transfected cells
T1 sequence (P11229 1-460): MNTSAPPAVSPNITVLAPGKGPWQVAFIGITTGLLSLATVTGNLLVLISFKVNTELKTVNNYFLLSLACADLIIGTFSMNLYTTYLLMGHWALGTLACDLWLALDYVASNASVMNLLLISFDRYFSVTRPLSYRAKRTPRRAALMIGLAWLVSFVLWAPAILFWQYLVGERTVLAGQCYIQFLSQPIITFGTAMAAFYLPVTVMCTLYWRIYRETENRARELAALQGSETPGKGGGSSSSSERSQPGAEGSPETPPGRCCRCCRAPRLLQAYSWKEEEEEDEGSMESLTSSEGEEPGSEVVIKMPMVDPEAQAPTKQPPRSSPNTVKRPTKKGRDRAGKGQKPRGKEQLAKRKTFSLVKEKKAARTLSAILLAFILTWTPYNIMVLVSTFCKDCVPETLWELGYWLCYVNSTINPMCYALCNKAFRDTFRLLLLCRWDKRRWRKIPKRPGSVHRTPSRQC
Test: Measurement of M1 receptor positive allosteric modulator (M1PAM) activity, calcium fluorescence (FLIPRtetra)
Type: cell-based
Settings: 10 μM test compound with acetylcholine at EC20 (final 0.6-0.8 nM); 100% = acetylcholine 1 μM, 0% = DMSO; CHO-K1 cells expressing hCHRM1
Description: Measurement of M1 Receptor Positive Allosteric Modulator (M1PAM) Activity
The activity of a test compound in the presence of acetylcholine at EC20 concentration (final concentration 0.6-0.8 nM), which affords an action corresponding to about 20% of the maximum activity, was measured as PAM activity. The method is as follows. CHO-K1 cells stably expressing a human M1 receptor (hCHRM1) were plated on a 384-well black clear bottom plate (BD Falcon) at 5,000 cells/well, and cultured in an incubator at 37° C., 5% CO2 for 1 day. The medium in the cell plate was removed, and assay buffer A containing calcium indicator (Recording medium (DOJINDO LABORATORIES), 0.1% BSA (Wako Pure Chemical Industries, Ltd.), 2.5 μg/mL Fluo-4 AM (DOJINDO LABORATORIES), 0.08% Pluronic F127 (DOJINDO LABORATORIES), 1.25 mM probenecid (DOJINDO LABORATORIES)) was added at 30 μL/well. The cells were left standing in the incubator at 37° C., 5% CO2 for 30 min, and further left standing at room temperature for 30 min. A test compound prepared by diluting with assay buffer B (HBSS (Invitrogen), 20 mM HEPES (Invitrogen), 0.1% BSA) containing 2.4-3.2 nM acetylcholine was added at 10 μL/well, and the fluorescence was measured by FLIPRtetra (Molecular Devices) for 1 min every for 1 second. With the definition that the amount of change in the fluorescence on addition of acetylcholine (final concentration 1 μM) is 100% and that on addition of DMSO instead of a test compound is 0%, the activity (%) of the test compound was calculated, and the inflection point in the concentration-dependent curve of the test compound was calculated as IP values.

SMILES | activity (%) at 10 μM [%]
O=C(N[C@H]1CCC[C@@H]1O)c1cc(Cc2ccc(-n3cccn3)cc2)c(C(F)F)cn1 [Example 37, 5-(difluoromethyl)-N-((1S,2S)-2-hydroxycyclopentyl)-4-(4-(1H-pyrazol-1-yl)benzyl)pyridine-2-carboxamide] | 106
N#Cc1cnc(C(=O)N[C@H]2CCCC[C@@H]2O)cc1Cc1ccc(-n2cccn2)cc1 [Example 67, 5-cyano-N-((1S,2S)-2-hydroxycyclohexyl)-4-(4-(1H-pyrazol-1-yl)benzyl)pyridine-2-carboxamide] | 95
Cc1nc(C(=O)N[C@H]2CCCC[C@@H]2O)cc(Cc2ccc(-n3cccn3)cc2)c1C#N [Example 112, 5-cyano-N-((1S,2S)-2-hydroxycyclohexyl)-6-methyl-4-(4-(1H-pyrazol-1-yl)benzyl)pyridine-2-carboxamide] | 91
COc1cnc(C(=O)N[C@H]2CCC[C@@H]2O)cc1Cc1ccc(-n2cccn2)cc1 [Example 60, N-((1S,2S)-2-hydroxycyclopentyl)-5-methoxy-4-(4-(1H-pyrazol-1-yl)benzyl)pyridine-2-carboxamide] | 87
COc1nc(C(=O)N[C@H]2CCCC[C@@H]2O)cc(Cc2ccc(-c3ccn(C)n3)cc2)c1C [Example 88, N-((1S,2S)-2-hydroxycyclohexyl)-6-methoxy-5-methyl-4-(4-(1-methyl-1H-pyrazol-3-yl)benzyl)pyridine-2-carboxamide] | 99
Cn1ccc(-c2ccc(Cc3cc(C(=O)N[C@H]4CCCC[C@@H]4O)ncc3Cl)cc2)n1 [Example 52, 5-chloro-N-((1S,2S)-2-hydroxycyclohexyl)-4-(4-(1-methyl-1H-pyrazol-3-yl)benzyl)pyridine-2-carboxamide] | 100
O=C(N[C@H]1COCC[C@@H]1O)c1cc(Cc2ccc(-n3cccn3)cc2)c(C(F)F)cn1 [Example 39, 1,5-anhydro-2,4-dideoxy-2-(((5-(difluoromethyl)-4-(4-(1H-pyrazol-1-yl)benzyl)pyridin-2-yl)carbonyl)amino)-L-threo-pentitol] | 100
COc1ccc(Cc2cc(C(=O)N[C@H]3COCC[C@@H]3O)nc(C)c2Cl)cn1 [Example 106, 1,5-anhydro-2-(((5-chloro-4-((6-methoxypyridin-3-yl)methyl)-6-methylpyridin-2-yl)carbonyl)amino)-2,4-dideoxy-L-threo-pentitol] | 104
Cn1ccc(-c2ccc(Cc3cc(C(=O)N[C@H]4COCC[C@@H]4O)ncc3C(F)F)cc2)n1 [Example 40, 1,5-anhydro-2,4-dideoxy-2-(((5-(difluoromethyl)-4-(4-(1-methyl-1H-pyrazol-3-yl)benzyl)pyridin-2-yl)carbonyl)amino)-L-threo-pentitol] | 95
O=C(N[C@H]1CCCC[C@@H]1O)c1cc(Cc2ccc(-n3cccn3)cc2)ccn1 [Example 45, N-((1S,2S)-2-hydroxycyclohexyl)-4-(4-(1H-pyrazol-1-yl)benzyl)pyridine-2-carboxamide] | 102
O=C(N[C@H]1CCC[C@@H]1O)c1cc(Cc2ccc(-n3cccn3)cc2F)c(Cl)cn1 [Example 53, 5-chloro-4-(2-fluoro-4-(1H-pyrazol-1-yl)benzyl)-N-((1S,2S)-2-hydroxycyclopentyl)pyridine-2-carboxamide] | 93
COc1cnc(C(=O)N[C@H]2COCC[C@@H]2O)cc1Cc1ccc(-n2cccn2)cc1 [Example 56, 1,5-anhydro-2,4-dideoxy-2-(((5-methoxy-4-(4-(1H-pyrazol-1-yl)benzyl)pyridin-2-yl)carbonyl)amino)-L-threo-pentitol] | 103
Cc1cnc(C(=O)NC2CC(F)(F)CCC2O)cc1Cc1ccc(-c2ccn(C)n2)cc1 (stereo not drawn) [Example 25, N-(5,5-difluoro-2-hydroxycyclohexyl)-5-methyl-4-(4-(1-methyl-1H-pyrazol-3-yl)benzyl)pyridine-2-carboxamide] | 85
Cc1cnc(C(=O)NC2CCCOC2)cc1Cc1ccc(-c2ccn(C)n2)cc1 (stereo not drawn) [Example 32, 5-methyl-4-(4-(1-methyl-1H-pyrazol-3-yl)benzyl)-N-(tetrahydro-2H-pyran-3-yl)pyridine-2-carboxamide] | 101
Cc1nc(C(=O)N[C@H]2COCC[C@@H]2O)cc(Cc2ccc(-n3cccn3)cc2)c1Cl [Example 99, 1,5-anhydro-2-(((5-chloro-6-methyl-4-(4-(1H-pyrazol-1-yl)benzyl)pyridin-2-yl)carbonyl)amino)-2,4-dideoxy-L-threo-pentitol] | 96

The remaining lines, values ahead:

activity (%) at 10 μM [%] | SMILES
85 | Cc1cnc(C(=O)NC2CC(F)(F)C2)cc1Cc1ccc(-c2ccn(C)n2)cc1 [Example 30, N-(3,3-difluorocyclobutyl)-5-methyl-4-(4-(1-methyl-1H-pyrazol-3-yl)benzyl)pyridine-2-carboxamide]
84 | Cc1cnc(C(=O)NC2CCOC2)cc1Cc1ccc(-c2ccn(C)n2)cc1 (stereo not drawn) [Example 31, 5-methyl-4-(4-(1-methyl-1H-pyrazol-3-yl)benzyl)-N-(tetrahydrofuran-3-yl)pyridine-2-carboxamide]
101 | O=C(N[C@H]1CCCC[C@@H]1O)c1cc(Cc2ccc(-n3cccn3)cc2)c(C(F)F)cn1 [Example 38, 5-(difluoromethyl)-N-((1S,2S)-2-hydroxycyclohexyl)-4-(4-(1H-pyrazol-1-yl)benzyl)pyridine-2-carboxamide]
95 | Cc1cnc(C(=O)N[C@H]2COCC[C@@H]2O)cc1Cc1ccc(-n2cccn2)cc1F [Example 36, 1,5-anhydro-2,4-dideoxy-2-(((4-(2-fluoro-4-(1H-pyrazol-1-yl)benzyl)-5-methylpyridin-2-yl)carbonyl)amino)-L-threo-pentitol]
100 | Cc1cnc(C(=O)N[C@H]2COCC[C@@H]2O)cc1Cc1ccc(-c2ccn(C)n2)cc1 [Example 2, 1,5-anhydro-2,4-dideoxy-2-(((5-methyl-4-(4-(1-methyl-1H-pyrazol-3-yl)benzyl)pyridin-2-yl)carbonyl)amino)-L-threo-pentitol]
104 | COc1cnc(C(=O)N[C@H]2CCCC[C@@H]2O)cc1Cc1ccc(-c2cnn(C)c2)cc1 [Example 64, N-((1S,2S)-2-hydroxycyclohexyl)-5-methoxy-4-(4-(1-methyl-1H-pyrazol-4-yl)benzyl)pyridine-2-carboxamide]
95 | Cc1nn(C)cc1-c1ccc(Cc2cc(C(=O)N[C@H]3CCCC[C@@H]3O)nc(C)c2Cl)cn1 [Example 109, 5-chloro-4-((6-(1,3-dimethyl-1H-pyrazol-4-yl)pyridin-3-yl)methyl)-N-((1S,2S)-2-hydroxycyclohexyl)-6-methylpyridine-2-carboxamide]
114 | CCn1cc(-c2ccc(Cc3cc(C(=O)N[C@H]4CCCC[C@@H]4O)nc(C)c3Cl)cn2)cn1 [Example 108, 5-chloro-4-((6-(1-ethyl-1H-pyrazol-4-yl)pyridin-3-yl)methyl)-N-((1S,2S)-2-hydroxycyclohexyl)-6-methylpyridine-2-carboxamide]
108 | O=C(N[C@H]1CCCC[C@@H]1O)c1cc(Cc2ccc(-n3cccn3)cc2)c(Cl)cn1 [Example 6, 5-chloro-N-((1S,2S)-2-hydroxycyclohexyl)-4-(4-(1H-pyrazol-1-yl)benzyl)pyridine-2-carboxamide]
99 | COc1nc(C(=O)N[C@H]2COCC[C@@H]2O)cc(Cc2ccc(-n3cccn3)cc2)c1C [Example 92, 1,5-anhydro-2,4-dideoxy-2-(((6-methoxy-5-methyl-4-(4-(1H-pyrazol-1-yl)benzyl)pyridin-2-yl)carbonyl)amino)-L-threo-pentitol]
106 | C=Cc1cnc(C(=O)N[C@H]2CCCC[C@@H]2O)cc1Cc1ccc(-n2cccn2)cc1 [Example 42, N-((1S,2S)-2-hydroxycyclohexyl)-4-(4-(1H-pyrazol-1-yl)benzyl)-5-vinylpyridine-2-carboxamide]
105 | COc1nc(C(=O)N[C@H]2CCC[C@@H]2O)cc(Cc2ccc(-n3cccn3)cc2)c1C [Example 93, N-((1S,2S)-2-hydroxycyclopentyl)-6-methoxy-5-methyl-4-(4-(1H-pyrazol-1-yl)benzyl)pyridine-2-carboxamide]
